In article PMC6522510 (Nature Communications, 2019):
Where a name gives a salt, the structure may show the parent alone. Read-outs that look alike come from different tables or passages of the source.

Columns and labels:
ML2 = test: Secondary dose-response HTS, Cell Titer Glo; type: cell-based, human
MV4-11 [1] = test: Secondary dose-response HTS, Cell Titer Glo; type: cell-based, human
MOLM-13 = test: Secondary dose-response HTS, Cell Titer Glo; type: cell-based, human; conditions: secondary high-throughput screen, MOLM-13; for EC50: read-out: average effective concentration, MOLM-13
CHRF288-11 = test: Secondary dose-response HTS, Cell Titer Glo; type: cell-based, human; conditions: secondary high-throughput screen; CHRF288-11
CMK = test: Secondary dose-response HTS, Cell Titer Glo; type: cell-based, human; conditions: CMK; for EC50: Homo sapiens, read-out: average effective concentration, CMK
MV4-11 [2] = test: cells; set-up: species or system AML cell lines (8); Secondary HTS, 10-point dose-response in triplicate, Cell Titer Glo viability, four-parameter fit EC50; conditions: Homo sapiens, MV4-11, 72 h, read-out: MV4-11
U937 = test: Secondary dose-response HTS, Cell Titer Glo; type: cell-based, human; conditions: secondary high-throughput screen, U937; for EC50: Homo sapiens, U-937, read-out: average effective concentration, U937
M07e = test: cells; set-up: species or system AML cell lines (8); Secondary HTS, 10-point dose-response in triplicate, Cell Titer Glo viability, four-parameter fit EC50; conditions: M-07e, 72 h, read-out: M07e
[3] = secondary high-throughput screen, MV4-11
[4] = secondary high-throughput screen, ML-2
[5] = secondary high-throughput screen
[6] = Homo sapiens, secondary high-throughput screen, MV4-11, read-out: average effective concentration, MV4-11
[7] = Homo sapiens, secondary high-throughput screen, ML-2, read-out: average effective concentration, ML-2

Compound | average effective concentration, MOLM-13 (MOLM-13) | average effective concentration, MV4-11 (MV4-11 [1]; [3]) | average effective concentration, CMK (CMK; [5]) | also measured
COc1ccc(C[C@H](NC(=O)[C@H](C)NC(=O)CN2CCOCC2)C(=O)N[C@@H](Cc2ccccc2)C(=O)C2(C)CO2)cc1 (stereo in doubt) [ONX-0914, reference compound] | – | – | – | EC50 (ML2; secondary HTS, 72 h, average of triplicate, read-out: EC50 ML2): 40 nM; EC50 (MV4-11 [1]; secondary HTS, 72 h, average of triplicate, read-out: EC50 MV4-11): 50 nM
COc1cc(O)c2c(c1)/C=C/C[C@H](O)[C@H](O)C(=O)/C=C\C[C@H](C)OC2=O [(5Z)-7-OXOZEAENOL] | Inactive | Inactive | – | –
N#C/C(=C\c1ccc(-c2cc(Cl)ccc2Cl)o1)C(=O)Nc1cccc2ncccc12 [AGK 2] | Inactive | Inactive | Inactive | average effective concentration, ML-2 (ML2; [4]): Inactive; average effective concentration, CHRF288-11 (CHRF288-11): Inactive
CNC(=O)c1ccccc1Sc1ccc2c(/C=C/c3ccccn3)n[nH]c2c1 [AXITINIB] | – | – | – | EC50 (MV4-11 [1]; [6]): 1100 nM
Cn1cccc1/C=C1\C(=O)NC(=O)c2ccccc21 [BYK 204165] | – | – | Inactive | –
C=CC(=O)Nc1cccc(Nc2nc(Nc3ccc(OCCOC)cc3)ncc2F)c1 [CC-292 (AVL-292)] | Inactive | Inactive | – | average effective concentration, CHRF288-11 (CHRF288-11): Inactive
Br.Cc1cc2nc(NCCCO)n(CC(=O)c3cc(C(C)(C)C)c(O)c(C(C)(C)C)c3)c2cc1C [CID-2858522] | Inactive | Inactive | Inactive | average effective concentration, CHRF288-11 (CHRF288-11): Inactive
COc1ccc(-c2nc(N3CCOCC3)c3sc(CN(C)c4ncc(C(=O)NO)cn4)cc3n2)cn1 [CUDC-907] | – | – | – | EC50 (MV4-11 [2]): 0.21 nM
Cc1cc(Cl)ccc1OCCCC(=O)NO [DROXINOSTAT] | Inactive | Inactive | Inactive | average effective concentration, ML-2 (ML2; [4]): Inactive; average effective concentration, U937 (U937): Inactive
CN(C)C1CCN(C(=O)c2ccc(NC(=O)Nc3ccc(-c4nc(N5CCOCC5)nc(N5CCOCC5)n4)cc3)cc2)CC1 [Gedatolisib] | – | – | – | EC50 (MOLM-13; Homo sapiens): 190 nM; EC50 (CMK; [5]): 7700 nM; EC50 (U937): 24 nM; EC50 (MV4-11 [1]; [6]): 47 nM
C[C@@H]1NC(=O)[C@H]2CCCN2C(=O)[C@H](CCCCCC(=O)[C@@H]2CO2)NC(=O)[C@@H](C)NC1=O [HC TOXIN] | – | Inactive | Inactive | –
CCNC(=O)C[C@@H]1N=C(c2ccc(Cl)cc2)c2cc(OC)ccc2-n2c(C)nnc21 [I-BET-762] | – | – | Inactive | average effective concentration, CHRF288-11 (CHRF288-11): Inactive
O=C(c1ccc(Nc2nccc(-c3cc4ccccc4s3)n2)cc1)N1CCC(N2CCCC2)CC1 [IKK 16] | Inactive | Inactive | – | –
Cc1ccc(NCCCc2ccccc2)c(N)c1 [JSH-23] | Inactive | Inactive | – | –
CCN1CCN(CC(=O)Nc2ccc(-c3cccc4c(=O)cc(N5CCOCC5)oc34)c3sc4ccccc4c23)CC1 [KU-0060648] | – | Inactive | – | –
CO[C@@H]1[C@H](N(C)C(=O)c2ccccc2)C[C@H]2O[C@]1(C)n1c3ccccc3c3c4c(c5c6ccccc6n2c5c31)C(=O)NC4 [MIDOSTAURIN] | – | – | – | EC50 (MOLM-13; Homo sapiens): 65 nM; EC50 (ML2; [7]): 17 nM
CO[C@H](C(=O)[C@@H](O)[C@@H](C)O)[C@@H]1Cc2cc3cc(O[C@H]4C[C@@H](O[C@H]5C[C@@H](O)[C@H](O)[C@@H](C)O5)[C@H](O)[C@@H](C)O4)c(C)c(O)c3c(O)c2C(=O)[C@H]1O[C@H]1C[C@@H](O[C@H]2C[C@@H](O[C@H]3C[C@](C)(O)[C@H](O)[C@@H](C)O3)[C@@H](O)[C@@H](C)O2)[C@H](O)[C@@H](C)O1 [MITHRAMYCIN A] | – | – | – | EC50 (M07e): > 10000 nM
O=C1c2c(O)ccc(O)c2C(=O)c2c(NCCNCCO)ccc(NCCNCCO)c21 [MITOXANTHRONE] | – | – | – | EC50 (ML2; secondary high-throughput screen, ML-2, read-out: average effective concentration, ML-2): 240 nM
C=CCn1c(=O)c2cnc(Nc3ccc(N4CCN(C)CC4)cc3)nc2n1-c1cccc(C(C)(C)O)n1 [MK-1775] | – | – | – | EC50 (M07e): > 10000 nM

Compound | average effective concentration, MOLM-13 (MOLM-13) | average effective concentration, MV4-11 (MV4-11 [1]; [3]) | average effective concentration, CMK (CMK; [5]) | also measured
CC(C)C(=O)SCCCCCCC(=O)Nc1nc(-c2ccccc2)cs1 [NCH 51] | – | Inactive | Inactive | –
CNC(=O)c1ccccc1Nc1nc(Nc2ccc(N3CCOCC3)cc2OC)ncc1Cl [NVP-TAE226] | – | Inactive | – | –
COC[C@H](NC(=O)c1cnc(C)s1)C(=O)N[C@@H](COC)C(=O)N[C@@H](Cc1ccccc1)C(=O)[C@@]1(C)CO1 [Oprozomib] | – | – | – | EC50 (MV4-11 [2]): 8.6 nM; EC50 (M07e): 6.3 nM
CN(c1ncccc1CNc1nc(Nc2ccc3c(c2)CC(=O)N3)ncc1C(F)(F)F)S(C)(=O)=O [PF-00562271] | Inactive | Inactive | – | average effective concentration, CHRF288-11 (CHRF288-11): Inactive
Cc1ccc(NC(=O)CCCCCC(=O)Nc2ccccc2N)cc1 [PIMELIC DIPHENYLAMIDE 106] | – | Inactive | Inactive | –
CS(=O)(=O)N1CCN(Cc2cc3nc(-c4cccc5[nH]ncc45)nc(N4CCOCC4)c3s2)CC1 [Pictilisib, reference compound] | – | – | – | EC50 (CMK): 2300 nM
Nc1ccc2ncnc(NCCc3ccc(Oc4ccccc4)cc3)c2c1 [QNZ] | Inactive | Inactive | Inactive | average effective concentration, ML-2 (ML2; [4]): Inactive; average effective concentration, CHRF288-11 (CHRF288-11): Inactive
COc1ccc([C@@]23Oc4cc(OC)cc(OC)c4[C@]2(O)[C@H](O)[C@H](C(=O)N(C)C)[C@H]3c2ccccc2)cc1 [ROCAGLAMIDE A] | – | Inactive | – | –
O=C(CCCCCCNC(=O)c1cnc(N(c2ccccc2)c2ccccc2)nc1)NO [ROCILINOSTAT] | Inactive | Inactive | – | –
Cc1cc(Nc2ccc(NC(=O)c3ccc(Nc4ccnc5ccccc45)cc3)cc2)nc(N)n1 [SGI-1027] | – | – | Inactive | –
O=C(Nc1ncc([N+](=O)[O-])s1)c1ccc([N+](=O)[O-])c(Cl)c1 [SM-7368] | Inactive | Inactive | Inactive | average effective concentration, CHRF288-11 (CHRF288-11): Inactive
O=C(Nc1ccccc1-c1cn2c(CN3CCNCC3)csc2n1)c1cnc2ccccc2n1 [SRT1720] | – | Inactive | Inactive | –
CN(C)CCCNc1c2ccccc2nc2c1[nH]c1ccccc12 [SYUIQ-5] | – | Inactive | Inactive | –
CNC(=O)c1cc(Oc2ccc(NC(=O)Nc3ccc(Cl)c(C(F)(F)F)c3)cc2)ccn1 [Sorafenib, reference compound] | – | – | 387 | EC50 (MOLM-13; Homo sapiens): 18 nM; EC50 (ML2; [7]): > 10000 nM; EC50 (U937): > 10000 nM
CC/C(=C(\c1ccccc1)c1ccc(OCCN(C)C)cc1)c1ccccc1 [TAMOXIFEN CITRATE] | – | – | – | EC50 (MV4-11 [2]): > 10000 nM
Nc1nc(NC2CC2)cc(-c2cccc(Cl)c2Cl)n1 [TH588] | Inactive | Inactive | – | average effective concentration, CHRF288-11 (CHRF288-11): Inactive
COc1cc(OC)c(/C=C/S(=O)(=O)Cc2ccc(OC)c(NCC(=O)O)c2)c(OC)c1 [rigosertib] | – | – | – | EC50 (MV4-11 [2]): 12.4 nM; EC50 (M07e): > 10000 nM
AZD4547 | – | – | – | EC50 (MOLM-13): 4100 nM; EC50 (MV4-11 [1]; secondary high-throughput screen, MV4-11, read-out: average effective concentration, MV4-11): 7800 nM
